Experimental data from patent US8933142B2, “Low-extractable thioxanthones” (Lamberti Spa, priority 2010, dated 2015).
Blank lines part the entries; values can stand above or below the molecule they belong to.

Legend:
[1] = FT-IR degree of polymerization in a pigmented photopolymerizable composition (as photoinitiator); settings: 3% photoinitiator, 3% Esacure A198, cyan ink, 3 μm film, Hg/Xe lamp 120 W/cm
Experimental: Evaluation of the Derivatives of Thioxanthone in a Pigmented Photopolymerizable Composition by Means of FT-IR.
Pigmented photopolymerizable compositions are prepared by mixing 3% by weight of both the photoinitiators of formula I (Examples 1-6) and the coinitiator Esacure A198 (bis-N,N-[4-dimethyl aminobenzoyl)oxyethylen-1-yl]-methylamine), commercialized by Lamberti S.p.A, and up to 100% by weight of a cyan ink for off-set inking.
Isopropyl thioxanthone (ITX) is chosen as reference photoinitiator.
The photopolymerizable compositions are milled with a three cylinders mill (laboratory scale) in order to homogenize the mix and applied with a thickness of 3 μm on a soft polyethylene substrate by means of a film coater (RK Print Coater Instrument Ltd).
The sample, placed in the sample lodgment of a FT-IR (FT-IR 430-Jasco), is exposed to a Mercury/Xenon Vapors light source at high pressure to 120 W/cm (L8868 Light-cure, Hamamatsu) set at a distance of 8 cm from the sample and at an angle of 30°.
IR spectra are acquired at constant time intervals during the photopolymerization and the reduction over time of the peak area at 1408 cm^−1 assigned to the acrylic double bond was determined by IR software (Perkin Elmer, Spectrum ONE v. 2.0). This allows to quantify the degree of polymerization over the time and therefore the efficiency of the photoinitiator.

[2] = FT-IR degree of polymerization in a pigmented composition (as sensitizer of Esacure 1001); settings: 0.5% sensitizer, 3% Esacure 1001, 3% Esacure A 198, cyan ink, 3 μm film
Experimental: The compounds described in the examples were evaluated also as sensitizer in a pigmented composition as described below.
Pigmented photopolymerizable compositions are prepared by mixing 3% by weight of both Esacure 1001 and coinitiator Esacure A 198 (both commercialized by Lamberti S.p.A.), 0.5% by weight of derivatives of thioxanthone of the Examples listed in Table 1 and up to 100% by weight of a cyan ink for off-set inking. ITX is used as reference sensitizer.
The photopolymerizable compositions are milled with a three cylinders mill (laboratory scale) in order to homogenize the mix and applied with a thickness of 3 μm on a soft polyethylene substrate by means of film coater (RK Print Coater Instrument Ltd).
The sample, placed in the sample lodgment of a FT-IR (FT-IR 430-Jasco), is exposed to a Mercury/Xenon Vapors light source at high pressure to 120 W/cm (L8868 Light-cure, Hamamatsu) set at a distance of 8 cm from the sample with an angle of 30°.
IR spectra were acquired at constant time during the photopolymerization and the reduction over the time of the area of the peak at 1408 cm^−1 assigned to the acrylic double bond is determined with the help of a IR software (Perkin Elmer, Spectrum ONE v. 2.0).
This allows to quantify the degree of polymerization over time and therefore the efficiency of the photoinitiator.

[3] = Through-cure (thumb twist test), as photoinitiator; settings: 3% thioxanthone derivative, 3% Esacure A 198, cyan ink, 3 μm on coated cardboard, Hg lamp 120 W/cm
Experimental: (§1) Evaluation of “Through-Cure”
(§2) The “through cure” test evaluates the degree of cross-linking of the deeper layers of the formulate (film) spread on the substrate. The film is considered completely crosslinked when it is not detached from the substrate or damaged by the “thumb twist test”. The test is carried out at various speeds of exposure to UV source. The higher the speed the higher the reactivity of the system.
(§3) The products described in the examples were tested both as photoinitiators and sensitizers. For the evaluation as photoinitiator the following formulation is employed (by weight): 3% of derivative of thioxanthone of formula I, 3% of Esacure A 198, up to 100% with cyan ink for off-set printing. For the evaluation as sensitizers the formulation is composed as follows (by weight): 0.5% of derivative of thioxanthone of formula I, 3% of Esacure A 198, 3% of Esacure 1001, up to 100% with cyan ink for off-set printing.
(§4) The resulting mixtures are milled with a three cylinders mill (laboratory scale) and applied on a coated cardboard with a thickness of 3 μm by means of film coater (RK Print Coater Instrument Ltd), then exposed at different speed to a mercury vapors lamp at high pressure 120 W/cm.
(§5) ITX, in the same amounts, is chosen as reference.

[4] = Through-cure (thumb twist test), as sensitizer; settings: 0.5% thioxanthone derivative, 3% Esacure A 198, 3% Esacure 1001, cyan ink, 3 μm on coated cardboard, Hg lamp 120 W/cm
Experimental: as §1, §2, §3, §4, §5

[5] = Photo DSC reactivity in tripropylene glycol diacrylate; settings: for Peak height / ΔH (peak area): 0.1% w/w compound, 0.1% w/w EDB, LED 400 nm, 24.3 mW/cm^2; for ΔH of polymerization of isomer 3 relative to isomer 1: Photo DSC peak area; for ΔH of polymerization of isomer 3 relative to isomer 1 / Reactivity of isomer 3 relative to isomer 1: isomer 3 versus isomer 1; for Reactivity of isomer 3 relative to isomer 1: Photo DSC peak height
From the text: Comparison of the reactivity of the 1 and 3 derivatives of thioxanthone by means of Photo DSC.
The compound of Example 1 (dodecyl 7-methyl-9-oxo-9H-thioxanthene-3-carboxylate) and the compound of Example 8 (dodecyl 7-methyl-9-oxo-9H-thioxanthene-1-carboxylate, comparative) were formulated and evaluated by PhotoDSC.
The compound of Example 5 (N,N-diisobutyl-7-methyl-9-oxo-9H-thioxanthene-3-carboxamide) and the compound of Example 7 (N,N-diisobutyl-7-methyl-9-oxo-9H-thioxanthene-1-carboxamide, comparative) were also formulated and compared by PhotoDSC.
The formulations were prepared dissolving in tripropylene glycol diacrylate the compounds described in the Examples 1, 8, 5 and 7 at a concentration of 0.1% w/w and EDB (Ethyl 4-dimethylamino-benzoate) at a concentration of 0.1% w/w.
About 1 mg of formulation (exactly weighted) was kept into a DSC aluminum panel and analyzed by a Mettler DSC1 calorimeter equipped with a 400 nm LED with a power of 450 mW. The LED was set in order to irradiate the formulation with an intensity of 24.3 mW/cm^2.
During the exposition to LED at 400 nm the heat developed from the polymerization of formulations prepared with the compounds described in the Examples 1, 8, 5 and 7 was recorded as peak height and peak area (ΔH). The peak height is proportional to the rate of polymerization: higher is the peak—faster is the polymerization.

[6] = Formulability through solubility in methylene chloride; settings: room temperature, stirring
Experimental: 10 g of the thioxanthone derivatives under investigation are weighed and suspended in the same amount of solvent; the mixture is maintained under stirring at room temperature.
After 2 min the clearness of the solution is evaluated: if the sample is not dissolved further aliquots of solvent are added, keeping the mixture under stirring for two min after each addition until complete solubilization.

Solubility [6]: 33%
Structure (SMILES): CCCCCCCCCCCCOC(=O)c1ccc2c(=O)c3cc(C)ccc3sc2c1 [Example 1, dodecyl-7-methyl-9-oxo-9H-thioxanthene-3-carboxylate]
% degree of polymerization after 1 sec [1]: 19.6%
% degree of polymerization after 2 sec [1]: 36.1%
% degree of polymerization after 5 sec [1]: 47.2%
% degree of polymerization after 1 sec [2]: 17.8%
% degree of polymerization after 2 sec [2]: 29.9%
% degree of polymerization after 5 sec [2]: 40.7%
Through-cure (photoinitiator) [3]: 85 m/min
Through-cure (sensitizer) [4]: 53 m/min
Peak height [5]: 58.9 W/g
ΔH (peak area) [5]: 266.4 J/g
ΔH of polymerization of isomer 3 relative to isomer 1 [5]: 1.2
Reactivity of isomer 3 relative to isomer 1 [5]: about 1.5 times

Solubility [6]: 33%
Structure (SMILES): CCCCCOC(=O)c1ccc2c(=O)c3cc(C)ccc3sc2c1 [Example 2, pentyl 7-methyl-9-oxo-9H-thioxanthene-3-carboxylate]
% degree of polymerization after 1 sec [1]: 2.5%
% degree of polymerization after 2 sec [1]: 3.1%
% degree of polymerization after 5 sec [1]: 7.2%
% degree of polymerization after 1 sec [2]: Not reactive
% degree of polymerization after 2 sec [2]: Not reactive
% degree of polymerization after 5 sec [2]: Not reactive
Through-cure (photoinitiator) [3]: 5 m/min
Through-cure (sensitizer) [4]: Not reactive

Solubility [6]: insoluble
Structure (SMILES): COC(=O)c1ccc2c(=O)c3cc(C)ccc3sc2c1 [Example 3, methyl 7-methyl-9-oxo-9H-thioxanthene-3-carboxylate]
% degree of polymerization after 1 sec [1]: Insoluble
% degree of polymerization after 2 sec [1]: Insoluble
% degree of polymerization after 5 sec [1]: Insoluble
% degree of polymerization after 1 sec [2]: Insoluble
% degree of polymerization after 2 sec [2]: Insoluble
% degree of polymerization after 5 sec [2]: Insoluble
Through-cure (photoinitiator) [3]: Insoluble
Through-cure (sensitizer) [4]: Insoluble

Solubility [6]: 5%
Structure (SMILES): C=CCOC(=O)c1ccc2c(=O)c3cc(C)ccc3sc2c1 [Example 4, allyl 7-methyl-9-oxo-9H-thioxanthene-3-carboxylate]
% degree of polymerization after 1 sec [1]: 5.9%
% degree of polymerization after 2 sec [1]: 18.3%
% degree of polymerization after 5 sec [1]: 35.3%
% degree of polymerization after 1 sec [2]: 20.6%
% degree of polymerization after 2 sec [2]: 33.2%
% degree of polymerization after 5 sec [2]: 43.2%
Through-cure (photoinitiator) [3]: 70 m/min
Through-cure (sensitizer) [4]: 60 m/min

Solubility [6]: 50%
Structure (SMILES): Cc1ccc2sc3cc(C(=O)N(CC(C)C)CC(C)C)ccc3c(=O)c2c1 [Example 5, N,N-disobutyl 7-methyl-9-oxo-9H-thioxanthene-3-carboxamide]
% degree of polymerization after 1 sec [1]: 18.0%
% degree of polymerization after 2 sec [1]: 33.7%
% degree of polymerization after 5 sec [1]: 45.9%
% degree of polymerization after 1 sec [2]: 22.3%
% degree of polymerization after 2 sec [2]: 36.7%
% degree of polymerization after 5 sec [2]: 45.8%
Through-cure (photoinitiator) [3]: 90 m/min
Through-cure (sensitizer) [4]: 60 m/min
Peak height [5]: 39.0 W/g
ΔH (peak area) [5]: 224.8 J/g
ΔH of polymerization of isomer 3 relative to isomer 1 [5]: about 2
Reactivity of isomer 3 relative to isomer 1 [5]: 3.5 times

Solubility [6]: 5%
Structure (SMILES): Cc1ccc2sc3cc(C(=O)N4CCN(C)CC4)ccc3c(=O)c2c1 [Example 6, 4-methyl-piperazinyl 7-methyl-9-oxo-9H-thioxanthene-3-carboxamide]

Structure (SMILES): Cc1ccc2sc3cccc(C(=O)N(CC(C)C)CC(C)C)c3c(=O)c2c1 [Example 7, N,N-diisobutyl-7-methyl-9-oxo-9H-thioxanthene-1-carboxamide]
Peak height [5]: 11.1 W/g
ΔH (peak area) [5]: 111.4 J/g

Structure (SMILES): CCCCCCCCCCCCOC(=O)c1cccc2sc3ccc(C)cc3c(=O)c12 [Example 8, dodecyl 7-methyl-9-oxo-9H-thioxanthene-1-carboxylate]
Peak height [5]: 38.4 W/g
ΔH (peak area) [5]: 208.5 J/g

Structure (SMILES): CC(C)c1ccc2sc3ccccc3c(=O)c2c1 [ITX, isopropyl thioxanthone, reference compound]
% degree of polymerization after 1 sec [1]: 10.0%
% degree of polymerization after 2 sec [1]: 18.9%
% degree of polymerization after 5 sec [1]: 33.0%
% degree of polymerization after 1 sec [2]: 19.6%
% degree of polymerization after 2 sec [2]: 31.4%
% degree of polymerization after 5 sec [2]: 40.9%
Through-cure (photoinitiator) [3]: 95 m/min
Through-cure (sensitizer) [4]: 60 m/min
